Data taken from US8481544B2, “Antibacterial compositions” (Biota Europe Limited, priority 2006, dated 2013).
Values after ≈ are worked out from the molar mass of the structure shown. Where two headings read alike, the source gives them in different places.

Legend:
[1] = system: Enterococcus faecalis ATCC 29212; assay: MIC against Enterococcus faecalis ATCC 29212; format: cell-based; conditions: ATCC29212
Outline: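 MIC measured by broth microdilution or agar dilution following CLSI guidelines (M7-A7 for aerobes, M11-A6 for anaerobes).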

Staphylococcus aureus = assay: mouse Staphylococcus aureus septicaemia model of infection, survival at day 7; format: in vivo
Procedure: Some of the Example compounds were also tested for activity in a mouse Staphylococcus aureus septicaemia model of infection.

[2] = system: Bacteroides fragilis ATCC 25285; assay: MIC against Bacteroides fragilis ATCC 25285; format: cell-based; conditions: ATCC25285, Isolate ID ATCC 25285
[3] = system: Chlamydia trachomatis T71214; assay: MIC against Chlamydia trachomatis T71214; format: cell-based; conditions: Isolate ID T71214
[4] = system: Chlamydophila pneumoniae IOL207; assay: MIC against Chlamydophila pneumoniae IOL207; format: cell-based; conditions: Chlamydia pneumoniae; Isolate ID IOL207
[5] = system: Clostridium difficile NQS 84; assay: MIC against Clostridium difficile NQS 84; format: cell-based; conditions: Clostridioides difficile, NQS84; Isolate ID NQS 84
Description: Institute. Methods for Dilution Antimicrobial Susceptibility Tests for Bacteria That Grow Aerobically; Approved Standard—Seventh Edition. Document M7-A7. CLSI, Wayne, Pa., 2006; Clinical Laboratories and Standards Institute. Methods for Antimicrobial Susceptibility Testing of Anaerobic Bacteria; Approved Standard—Sixth Edition. Document M11-A6. CLSI, Wayne, Pa., 2004).

[6] = system: Clostridium perfringens IV306001; assay: microbe, parasite or virus in culture; format: cell-based; conditions: IV306001, read-out: MIC (Activity) against Clostridium perfringens
[7] = system: Enterococcus faecalis (VRE) ATCC 51299; assay: MIC against Enterococcus faecalis (VRE) ATCC 51299; format: cell-based
[8] = system: Enterococcus faecium (VRE) ATCC 700221; assay: MIC against Enterococcus faecium (VRE) ATCC 700221; format: cell-based
[9] = system: Enterococcus faecium (VSE) ATCC 19434; assay: MIC against Enterococcus faecium (VSE) ATCC 19434; format: cell-based; conditions: ATCC19434
Escherichia coli N43 = assay: MIC against Escherichia coli N43; format: cell-based; conditions: Isolate ID N43
[10] = system: Haemophilus influenzae ATCC 49247; assay: MIC against Haemophilus influenzae ATCC 49247; format: cell-based; conditions: ATCC49247, Isolate ID ATCC 49247
[11] = system: Helicobacter pylori DJF 11; assay: MIC against Helicobacter pylori DJF 11; format: cell-based; conditions: DJF11, Isolate ID DJF 11
[12] = system: Lactococcus lactis ATCC 11454; assay: MIC against Lactococcus lactis ATCC 11454; format: cell-based; conditions: ATCC11454, Isolate ID ATCC 11454
[13] = system: Legionella pneumophila LP NCTC 11192; assay: microbe, parasite or virus in culture; format: cell-based; conditions: NCTC11192, read-out: MIC (Activity) against Legionella pneumophila
[14] = system: Listeria monocytogenes ATCC 19115; assay: MIC against Listeria monocytogenes ATCC 19115; format: cell-based; conditions: ATCC19115, Isolate ID ATCC 19115
[15] = system: Moraxella catarrhalis ATCC 25240; assay: MIC against Moraxella catarrhalis ATCC 25240; format: cell-based; conditions: ATCC25240
[16] = system: Mycoplasma hominis MH NCTC 10111; assay: MIC against Mycoplasma hominis MH NCTC 10111; format: cell-based; conditions: Metamycoplasma hominis, NCTC10111; Isolate ID MH NCTC 10111
Mycoplasma hominis MH 10 = assay: MIC against Mycoplasma hominis MH 10; format: cell-based; conditions: Metamycoplasma hominis, MH10; Isolate ID MH 10
[17] = system: Mycoplasma pneumoniae MP 9; assay: MIC against Mycoplasma pneumoniae MP 9; format: cell-based; conditions: MP9, Isolate ID MP 9
[18] = system: Mycoplasma pneumoniae MP NCTC 10119; assay: MIC against Mycoplasma pneumoniae MP NCTC 10119; format: cell-based; conditions: NCTC10119, Isolate ID MP NCTC 10119
[19] = system: Neisseria gonorrhoeae NG ATCC 49226; assay: MIC against Neisseria gonorrhoeae NG ATCC 49226; format: cell-based; conditions: ATCC49226, Isolate ID NG ATCC 49226
[20] = system: Propionibacterium acnes ATCC 11821; assay: MIC against Propionibacterium acnes ATCC 11821; format: cell-based; conditions: Cutibacterium acnes, ATCC11821; Isolate ID ATCC 11821
[21] = system: Staphylococcus aureus ATCC 29213; assay: MIC against Staphylococcus aureus ATCC 29213; format: cell-based; conditions: ATCC29213
[22] = system: Staphylococcus aureus VRS1; assay: MIC against Staphylococcus aureus VRS1; format: cell-based; conditions: Isolate ID VRS1
[23] = system: Staphylococcus aureus VRS2; assay: MIC against Staphylococcus aureus VRS2; format: cell-based; conditions: Isolate ID VRS2
[24] = system: Staphylococcus aureus VRS3; assay: MIC against Staphylococcus aureus VRS3; format: cell-based; conditions: Isolate ID VRS3
[25] = system: Staphylococcus epidermidis ATCC 12228; assay: MIC against Staphylococcus epidermidis ATCC 12228; format: cell-based; conditions: ATCC12228
[26] = system: Staphylococcus haemolyticus ATCC 29970; assay: MIC against Staphylococcus haemolyticus ATCC 29970; format: cell-based; conditions: ATCC29970
[27] = system: Streptococcus mutans ATCC 35668; assay: MIC against Streptococcus mutans ATCC 35668; format: cell-based; conditions: ATCC35668
[28] = system: Streptococcus pneumoniae ATCC 700671; assay: MIC against Streptococcus pneumoniae ATCC 700671; format: cell-based; conditions: ATCC700671, Isolate ID ATCC 700671
[29] = system: Streptococcus pneumoniae SP 051430; assay: MIC against Streptococcus pneumoniae SP 051430; format: cell-based; conditions: SP051430, Isolate ID SP 051430
[30] = system: Streptococcus pneumoniae (FQR) SP 26054; assay: MIC against Streptococcus pneumoniae (FQR) SP 26054; format: cell-based; conditions: Isolate ID SP 26054
[31] = system: Streptococcus pneumoniae (FQR) SP 25058; assay: MIC against Streptococcus pneumoniae (FQR) SP 25058; format: cell-based; conditions: Isolate ID SP 25058
[32] = system: Streptococcus pneumoniae (MacR) SP 051431; assay: MIC against Streptococcus pneumoniae (MacR) SP 051431; format: cell-based; conditions: Isolate ID SP 051431
[33] = system: Streptococcus pyogenes ATCC 51339; assay: MIC against Streptococcus pyogenes ATCC 51339; format: cell-based; conditions: ATCC51339
[34] = system: Streptococcus agalactiae ATCC 13813; assay: MIC against Streptococcus agalactiae ATCC 13813; format: cell-based; conditions: ATCC13813
[35] = system: Streptococcus pneumoniae ATCC 49619; assay: MIC against Streptococcus pneumoniae ATCC 49619; format: cell-based; conditions: ATCC49619

In the case of CCNC(=O)Nc1nc2cc(-c3cccnc3)cc(-c3ccccn3)c2s1 [Example 163, 1-Ethyl-3-(5-pyridin-3-yl-7-pyridin-2-yl-benzothiazol-2-yl)-urea], the MIC ([1]; Enterococcus faecalis ATCC 29212, read-out: MICs against Enterococcus faecalis, Activity) is reported as < 0.25 µg/mL, the Percent survival (Staphylococcus aureus; 1 × 10 mg/kg intraperitoneal, 1 hour after inoculation) is reported as 60 and the Percent survival (Staphylococcus aureus; 1 × 30 mg/kg intraperitoneal, 1 hour after inoculation) is reported as 100. It also gave a Percent survival (Staphylococcus aureus; 2 × 30 mg/kg intraperitoneal, 1 and 6 hours after inoculation) of 100, an MIC [2] of 2 to 16 µg/mL (≈ 5.33 to 42.6 µM) and an MIC [3] of 0.25 to 1 µg/mL (≈ 0.666 to 2.66 µM). For the same compound, the MIC [4] was < 0.25 µg/mL, the MIC [5] was 0.25 to 1 µg/mL (≈ 0.666 to 2.66 µM) and the MIC [6] was 0.25 to 1 µg/mL (≈ 0.666 to 2.66 µM). The MIC ([7]; Enterococcus faecalis, Isolate ID ATCC 51299, read-out: MIC (Activity) against Enterococcus faecalis (VRE)) was < 0.25 µg/mL, the MIC ([8]; Enterococcus faecium, Isolate ID ATCC 700221, read-out: MIC (Activity) against Enterococcus faecium (VRE)) was < 0.25 µg/mL and the MIC ([9]; Enterococcus faecium, Isolate ID ATCC 19434, read-out: MIC (Activity) against Enterococcus faecium (VSE)) was 0.25 to 1 µg/mL (≈ 0.666 to 2.66 µM). For the same compound, the MIC (Escherichia coli N43) was 2 to 16 µg/mL (≈ 5.33 to 42.6 µM), the MIC [10] was 2 to 16 µg/mL (≈ 5.33 to 42.6 µM) and the MIC [11] was < 0.25 µg/mL. The MIC [12] was < 0.25 µg/mL, the MIC [13] was 0.25 to 1 µg/mL (≈ 0.666 to 2.66 µM) and the MIC [14] was < 0.25 µg/mL. For the same compound, the MIC ([15]; Moraxella catarrhalis, Isolate ID ATCC 25240, read-out: MIC (Activity) against Moraxella catarrhalis) was < 0.25 µg/mL, the MIC [16] was 0.25 to 1 µg/mL (≈ 0.666 to 2.66 µM) and the MIC (Mycoplasma hominis MH 10) was 0.25 to 1 µg/mL (≈ 0.666 to 2.66 µM). It also gave an MIC [17] of 0.25 to 1 µg/mL (≈ 0.666 to 2.66 µM), an MIC [18] of 0.25 to 1 µg/mL (≈ 0.666 to 2.66 µM) and an MIC [19] of 0.25 to 1 µg/mL (≈ 0.666 to 2.66 µM). The MIC [20] was < 0.25 µg/mL, the MIC ([21]; Staphylococcus aureus, Isolate ID ATCC 29213, read-out: MIC (Activity) against Staphylococcus aureus) was 0.25 to 1 µg/mL (≈ 0.666 to 2.66 µM) and the MIC [22] was < 0.25 µg/mL. The MIC [23] was < 0.25 µg/mL, the MIC [24] was < 0.25 µg/mL and the MIC ([25]; Staphylococcus epidermidis, Isolate ID ATCC 12228, read-out: MIC (Activity) against Staphylococcus epidermidis) was < 0.25 µg/mL. The MIC ([26]; Staphylococcus haemolyticus, Isolate ID ATCC 29970, read-out: MIC (Activity) against Staphylococcus haemolyticus) was < 0.25 µg/mL, the MIC ([27]; Streptococcus mutans, Isolate ID ATCC 35668, read-out: MIC (Activity) against Streptococcus mutans) was < 0.25 µg/mL and the MIC [28] was < 0.25 µg/mL. For the same compound, the MIC [29] was < 0.25 µg/mL, the MIC [30] was < 0.25 µg/mL and the MIC [31] was < 0.25 µg/mL. The MIC [32] was < 0.25 µg/mL and the MIC ([33]; Streptococcus pyogenes, Isolate ID ATCC 51339, read-out: MIC (Activity) against Streptococcus pyogenes) was 0.25 to 1 µg/mL (≈ 0.666 to 2.66 µM).

CCNC(=O)Nc1nc2cc(-c3cccnc3)nc(-c3cccnc3)c2s1 [Example 180, 1-(4,6-Di-pyridin-3-yl-thiazolo[5,4-c]pyridin-2-yl)-3-ethyl-urea] was tested, and the MIC ([1]; Enterococcus faecalis, ATCC 29212, Table 5, read-out: MIC against Enterococcus faecalis (Activity)) was 0.25 to 1 µg/mL (≈ 0.664 to 2.66 µM), the MIC ([7]; Enterococcus faecalis (VRE) ATCC 51299, read-out: MIC Activity) was 0.25 to 1 µg/mL (≈ 0.664 to 2.66 µM) and the MIC ([8]; Enterococcus faecium (VRE) ATCC 700221, read-out: MIC Activity) was 2 to 16 µg/mL (≈ 5.31 to 42.5 µM). For the same compound, the MIC ([9]; Enterococcus faecium (VSE) ATCC 19434, read-out: MIC Activity) was 2 to 16 µg/mL (≈ 5.31 to 42.5 µM), the MIC ([15]; Moraxella catarrhalis ATCC 25240, read-out: MIC Activity) was 0.25 to 1 µg/mL (≈ 0.664 to 2.66 µM) and the MIC ([21]; Staphylococcus aureus ATCC 29213, read-out: MIC Activity) was 2 to 16 µg/mL (≈ 5.31 to 42.5 µM). For the same compound, the MIC ([25]; Staphylococcus epidermidis ATCC 12228, read-out: MIC Activity) was 0.25 to 1 µg/mL (≈ 0.664 to 2.66 µM), the MIC ([26]; Staphylococcus haemolyticus ATCC 29970, read-out: MIC Activity) was 0.25 to 1 µg/mL (≈ 0.664 to 2.66 µM) and the MIC ([27]; Streptococcus mutans ATCC 35668, read-out: MIC Activity) was 0.25 to 1 µg/mL (≈ 0.664 to 2.66 µM). It also gave an MIC ([33]; Streptococcus pyogenes ATCC 51339, read-out: MIC Activity) of 2 to 16 µg/mL (≈ 5.31 to 42.5 µM), an MIC [34] of 0.25 to 1 µg/mL (≈ 0.664 to 2.66 µM) and an MIC [35] of 0.25 to 1 µg/mL (≈ 0.664 to 2.66 µM).
